For assay [1], the system named is HT-1080. Description: Inhibition of invasion of human HT1080 cells into Matrigel at 0.17 uM. Format: functional.
Assay [2] has as its system HT-1080. The experiment in a line: Inhibition of invasion of human HT1080 cells into Matrigel at 3.73 uM. Format: functional.

As usually defined, the inhibition is how much of the control response was suppressed. Read a high inhibition as a response far below the control. In the assay with HT-1080 [1], `COc1cccc2c1C(=O)c1c(O)c3c(c(O)c1C2=O)C[C@@](O)(C(=O)CO)C[C@@H]3O[C@H]1C[C@H](N)[C@H](O)[C@H](C)O1` [DOXORUBICIN] had an inhibition at 0.17 µM of 52%.
Consider `C[C@H]1C(=O)[C@@H]2C[C@](C)(CO)C[C@]2(O)[C@@]2(C)CC[C@@]12O` [RUSSUJAPONOL A], for which the inhibition at 3.73 µM in the assay with HT-1080 [2] is 63%.
